Source: patent US6218398A, “Nocathiacin antibiotics” (Bristol-Myers Squibb Company, priority 1999, dated 2001)
≈ marks a conversion by molar mass, not a printed value. Like-named read-outs stand apart in the source and are kept apart here.

Key:
[1] = system: Staphylococcus aureus/β-lactamase positive A15090; experiment: MIC by conventional serial broth dilution assay; assay type: cell-based
[2] = system: Moraxella catarrhalis/β-lactamase positive A22344; experiment: MIC by conventional serial broth dilution assay; assay type: cell-based
[3] = system: Streptococcus pneumoniae A9585; experiment: MIC by conventional serial broth dilution assay; assay type: cell-based
[4] = system: Staphylococcus aureus/QC/ATCC#29213 A24407; experiment: MIC by conventional serial broth dilution assay; assay type: cell-based
[5] = system: Haemophilus influenzae/β-lactamase positive A21515; experiment: MIC by conventional serial broth dilution assay; assay type: cell-based; conditions: β-lactamase positive, read-out: MIC
[6] = system: Haemophilus influenzae/β-lactamase negative A20183; experiment: MIC by conventional serial broth dilution assay; assay type: cell-based; conditions: β-lactamase negative, read-out: MIC
[7] = system: Staphylococcus aureus/homo methicillin resistant A27223; experiment: MIC by conventional serial broth dilution assay; assay type: cell-based
[8] = system: Moraxella catarrhalis/β-lactamase positive A25409; experiment: MIC by conventional serial broth dilution assay; assay type: cell-based
[9] = system: Streptococcus pneumoniae/penicillin resistant A28272; experiment: MIC by conventional serial broth dilution assay; assay type: cell-based
[10] = system: Enterococcus faecium A24885; experiment: MIC by conventional serial broth dilution assay; assay type: cell-based
[11] = system: Staphylococcus epidermidis A24548; experiment: MIC by conventional serial broth dilution assay; assay type: cell-based
[12] = system: Enterococcus faecalis A27519; experiment: MIC by conventional serial broth dilution assay; assay type: cell-based
[13] = system: Haemophilus influenzae/β-lactamase negative A20191; experiment: MIC by conventional serial broth dilution assay; assay type: cell-based; conditions: β-lactamase negative, read-out: MIC
[14] = system: Staphylococcus haemolyticus A27298; experiment: MIC by conventional serial broth dilution assay; assay type: cell-based
[15] = system: Streptococcus pneumoniae/penicillin intermediate A27881; experiment: MIC by conventional serial broth dilution assay; assay type: cell-based
[16] = system: Enterococcus avium A27456; experiment: MIC by conventional serial broth dilution assay; assay type: cell-based
[17] = system: Enterococcus faecalis A20688; experiment: MIC by conventional serial broth dilution assay; assay type: cell-based
Gram-positive bacteria [18] = experiment: in vitro activity against Gram-positive bacteria; assay type: cell-based; conditions: e.g. multiple drug resistant Enterococcus faecium
[19] = system: Staphylococcus aureus/hetero methicillin resistant A27218; experiment: MIC by conventional serial broth dilution assay; assay type: cell-based
Salmonella/WT A27207 = experiment: MIC by conventional serial broth dilution assay; assay type: cell-based
[20] = system: Streptococcus pyogenes A9604; experiment: MIC by conventional serial broth dilution assay; assay type: cell-based
Escherichia coli A15119 = experiment: MIC by conventional serial broth dilution assay; assay type: cell-based
Bacillus subtilis A9506A = experiment: MIC by conventional serial broth dilution assay; assay type: cell-based
[21] = system: Escherichia coli/AcrA::Kan A28901; experiment: MIC by conventional serial broth dilution assay; assay type: cell-based
Salmonella/RE A27208 = experiment: MIC by conventional serial broth dilution assay; assay type: cell-based
[22] = system: Enterococcus faecium/thiostrepton resistant (10 ug/ml) SC15829; experiment: MIC by conventional serial broth dilution assay; assay type: cell-based
Escherichia coli A22292 = experiment: MIC by conventional serial broth dilution assay; assay type: cell-based
[23] = system: Staphylococcus aureus A9537; experiment: MIC by conventional serial broth dilution assay; assay type: cell-based
Micrococcus luteus A9852 = experiment: MIC by conventional serial broth dilution assay; assay type: cell-based
[24] = system: Salmonella enteritidis A9531; experiment: MIC by conventional serial broth dilution assay; assay type: cell-based; conditions: Salmonella enterica
[25] = system: Enterococcus faecium strain A28152; experiment: antibiotic susceptibility of the MREF strain; assay type: cell-based; conditions: strain description; source not stated
Gram-positive bacteria [26] = conditions: reported for known thiazolyl peptides; cited from earlier work
[27] = β-lactamase positive, read-out: MIC

Compound: C=C(NC(=O)c1csc(-c2nc3c(cc2O)-c2nc(cs2)C(=O)NC(C(C)O)C(=O)NC(=C(C)OC)c2nc(cs2)C(=O)NC2c4nc(cs4)C(=O)NC(COC(=O)c4c5c6c(cccc6n4O)COC(=O)C(O)C2OC5)c2nc-3cs2)n1)C(N)=O (centres unmarked) [Nocathiacin III]
- MIC ([1]; + 50% calf serum, read-out: MIC): 0.03 µg/mL
- MIC [1, 27]: 0.007 µg/mL (≈ 0.00553 µM)
- MIC [2, 27]: 0.06 µg/mL (≈ 0.0474 µM)
- MIC ([3]; read-out: MIC): ≤ 0.002 µg/mL
- MIC ([4]; ATCC29213, QC/ATCC#29213, read-out: MIC): 0.007 µg/mL (≈ 0.00553 µM)
- MIC [5]: > 64 µg/mL
- MIC [6]: > 64 µg/mL
- MIC ([7]; homo methicillin resistant, read-out: MIC): 0.007 µg/mL (≈ 0.00553 µM)
- MIC [8, 27]: 0.06 µg/mL (≈ 0.0474 µM)
- MIC ([9]; penicillin resistant, read-out: MIC): ≤ 0.002 µg/mL
- MIC ([10]; read-out: MIC): 0.03 µg/mL (≈ 0.0237 µM)
- MIC ([11]; read-out: MIC): 0.007 µg/mL (≈ 0.00553 µM)
- MIC ([12]; read-out: MIC): 0.03 µg/mL (≈ 0.0237 µM)
- MIC [13]: > 64 µg/mL
- MIC ([14]; read-out: MIC): 0.007 µg/mL (≈ 0.00553 µM)
- MIC ([15]; penicillin intermediate, read-out: MIC): ≤ 0.002 µg/mL
- MIC ([16]; read-out: MIC): 0.03 µg/mL (≈ 0.0237 µM)
- MIC ([17]; A20688, + 50% calf serum, read-out: MIC): 0.25 µg/mL
- MIC ([17]; A20688, read-out: MIC): 0.03 µg/mL (≈ 0.0237 µM)
- inhibitory activity against Gram-positive bacteria (Gram-positive bacteria [18]): inhibitory activity at the nanomolar level

Compound: C=C(NC(=O)c1csc(-c2nc3c(cc2O)-c2nc(cs2)C(=O)NC(C(C)O)C(=O)NC(=C(C)OC)c2nc(cs2)C(=O)NC2c4nc(cs4)C(=O)NC(COC(=O)c4[nH]c5cccc6c5c4COC2C(OC2CC(C)(O)C(N(C)C)C(C)O2)C(=O)OC6)c2nc-3cs2)n1)C(N)=O (centres unmarked) [Nocathiacin II]
- MIC ([1]; + 50% calf serum): 0.5 µg/mL
- MIC ([1]; β-lactamase positive): 0.5 µg/mL (≈ 0.352 µM)
- MIC ([19]; + 50% calf serum): 0.5 µg/mL
- MIC ([19]; hetero methicillin resistant): 0.5 µg/mL (≈ 0.352 µM)
- MIC (Salmonella/WT A27207): > 128 µg/mL
- MIC [20]: 0.125 µg/mL (≈ 0.0879 µM)
- MIC [2]: 0.125 µg/mL (≈ 0.0879 µM)
- MIC [3]: 0.015 µg/mL (≈ 0.0106 µM)
- MIC ([4]; ATCC29213): 0.5 µg/mL (≈ 0.352 µM)
- MIC ([7]; + 50% calf serum): 0.125 µg/mL
- MIC ([7]; homo methicillin resistant): 0.125 µg/mL (≈ 0.0879 µM)
- MIC (Escherichia coli A15119): > 128 µg/mL
- MIC [8]: 0.125 µg/mL (≈ 0.0879 µM)
- MIC (Bacillus subtilis A9506A): 0.125 µg/mL (≈ 0.0879 µM)
- MIC [9]: 0.015 µg/mL (≈ 0.0106 µM)
- MIC [21]: > 128 µg/mL
- MIC [10]: 0.5 µg/mL (≈ 0.352 µM)
- MIC (Salmonella/RE A27208): > 128 µg/mL
- MIC [11]: 0.125 µg/mL (≈ 0.0879 µM)
- MIC [12]: 0.5 µg/mL (≈ 0.352 µM)
- MIC [22]: 0.5 µg/mL (≈ 0.352 µM)
- MIC (Escherichia coli A22292): > 128 µg/mL
- MIC [23]: 0.06 µg/mL (≈ 0.0422 µM)
- MIC [14]: 0.25 µg/mL (≈ 0.176 µM)
- MIC [15]: 0.015 µg/mL (≈ 0.0106 µM)
- MIC [16]: 0.5 µg/mL (≈ 0.352 µM)
- MIC (Micrococcus luteus A9852): 0.125 µg/mL (≈ 0.0879 µM)
- MIC ([17]; A20688): 0.5 µg/mL (≈ 0.352 µM)
- MIC ([17]; A20688, + 50% calf serum): 0.5 µg/mL
- inhibitory activity against Gram-positive bacteria (Gram-positive bacteria [18]): inhibitory activity at the nanomolar level
- MIC [24]: > 128 µg/mL

Compound: O=C(N[C@H](CO)[C@H](O)c1ccc([N+](=O)[O-])cc1)C(Cl)Cl [chloramphenicol]
- resistance/sensitivity of E. faecium strain A28152 to the antibiotic [25]: sensitive

Compound: O=C(O)c1cn(C2CC2)c2cc(N3CCNCC3)c(F)cc2c1=O [ciprofloxacin]
- resistance/sensitivity of E. faecium strain A28152 to the antibiotic [25]: resistant

Compound: CCC[C@@H]1C[C@@H](C(=O)N[C@@H]([C@H]2O[C@H](SC)[C@H](O)[C@@H](O)[C@H]2O)[C@H](C)Cl)N(C)C1 [clindamycin]
- resistance/sensitivity of E. faecium strain A28152 to the antibiotic [25]: resistant

Compound: CC[C@H]1OC(=O)[C@H](C)[C@@H](O[C@H]2C[C@@](C)(OC)[C@@H](O)[C@H](C)O2)[C@H](C)[C@@H](O[C@@H]2O[C@H](C)C[C@H](N(C)C)[C@H]2O)[C@](C)(O)C[C@@H](C)C(=O)[C@H](C)[C@@H](O)[C@]1(C)O [erythromycin]
- resistance/sensitivity of E. faecium strain A28152 to the antibiotic [25]: resistant

Compound: CO/C(C)=C1/NC(=O)[C@H]([C@@H](C)O)NC(=O)c2csc(n2)-c2cc(O)c(-c3nc(C(N)=O)cs3)nc2-c2csc(n2)[C@@H]2CSC(=O)c3[nH]c4cccc5c4c3CO[C@@H](C(NC(=O)c3csc1n3)c1nc(cs1)C(=O)N2)[C@@H](O[C@H]1C[C@](C)(O)[C@H](N(C)C)[C@H](C)O1)C(=O)OC5 [glycothiohexide-α]
- antimicrobial activity against Gram-positive bacteria in vitro (Gram-positive bacteria [26]): potent antimicrobial activity

Compound: C=C(NC(=O)c1csc(-c2nc3c(cc2O)-c2nc(cs2)C(=O)NC(C(C)O)C(=O)N/C(=C\C)c2nc(cs2)C(=O)NC2CC(O)C(=O)OCc4cccc5[nH]c(c(C)c45)C(=O)SCC(NC(=O)c4csc2n4)c2nc-3cs2)n1)C(N)=O (centres unmarked) [nosiheptide]
- antimicrobial activity against Gram-positive bacteria in vitro (Gram-positive bacteria [26]): potent antimicrobial activity

Compound: CC1(C)S[C@@H]2[C@H](NC(=O)Cc3ccccc3)C(=O)N2[C@H]1C(=O)O [penicillin G]
- resistance/sensitivity of E. faecium strain A28152 to the antibiotic [25]: resistant

Compound: CO[C@H]1/C=C/O[C@@]2(C)Oc3c(C)c(O)c4c(O)c(c(/C=N/N5CCN(C)CC5)c(O)c4c3C2=O)NC(=O)/C(C)=C\C=C\[C@H](C)[C@H](O)[C@@H](C)[C@@H](O)[C@@H](C)[C@H](OC(C)=O)[C@@H]1C [rifampin]
- resistance/sensitivity of E. faecium strain A28152 to the antibiotic [25]: resistant

Compound: [H]/N=C(/N)N[C@H]1[C@H](O)[C@@H](O)[C@H](O[C@@H]2O[C@@H](C)[C@](O)(C=O)[C@H]2O[C@@H]2O[C@@H](CO)[C@H](O)[C@@H](O)[C@@H]2NC)[C@@H](N/C(N)=N\[H])[C@@H]1O [streptomycin]
- resistance/sensitivity of E. faecium strain A28152 to the antibiotic [25]: resistant

Compound: CN(C)C1C(=O)C(C(N)=O)=C(O)C2(O)C(=O)C3=C(O)c4c(O)cccc4C(C)(O)C3CC12 (centres unmarked) [tetracycline]
- resistance/sensitivity of E. faecium strain A28152 to the antibiotic [25]: resistant

Compound: C=C(NC(=O)C(=C)NC(=O)c1csc(C2=N[C@@H]3c4csc(n4)[C@H]4NC(=O)c5csc(n5)[C@H]([C@](C)(O)[C@@H](C)O)NC(=O)[C@H]5CSC(=N5)/C(=C/C)NC(=O)[C@H]([C@@H](C)O)NC(=O)c5csc(n5)[C@]3(CC2)NC(=O)[C@H](C)NC(=O)C(=C)NC(=O)[C@H](C)NC(=O)[C@H]([C@@H](C)CC)N[C@@H]2C=Cc3c([C@H](C)O)cc(nc3[C@H]2O)C(=O)O[C@@H]4C)n1)C(N)=O [thiostrepton]
- antimicrobial activity against Gram-positive bacteria in vitro (Gram-positive bacteria [26]): potent antimicrobial activity

Compound: CN[C@H](CC(C)C)C(=O)N[C@H]1C(=O)N[C@@H](CC(N)=O)C(=O)N[C@H]2C(=O)N[C@H]3C(=O)N[C@H](C(=O)N[C@H](C(=O)O)c4cc(O)cc(O)c4-c4cc3ccc4O)[C@H](O)c3ccc(c(Cl)c3)Oc3cc2cc(c3O[C@@H]2O[C@H](CO)[C@@H](O)[C@H](O)[C@H]2O[C@H]2C[C@](C)(N)[C@H](O)[C@H](C)O2)Oc2ccc(cc2Cl)[C@H]1O [vancomycin]
- resistance/sensitivity of E. faecium strain A28152 to the antibiotic [25]: resistant

Compound: gentamicin
- resistance/sensitivity of E. faecium strain A28152 to the antibiotic [25]: resistant

Compound: teicoplanin
- resistance/sensitivity of E. faecium strain A28152 to the antibiotic [25]: resistant
